From ChEMBL document CHEMBL1201862, “PubChem BioAssay data set” (2004)
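Values below derive from 48-hour exposures of cells grown in 96-well plates, with endpoints linearly interpolated between the two concentrations bracketing the appropriate inhibition level. The concentration for 50% growth inhibition is given as GI50.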 Calls of active or inactive are those of the source. Rule as the data show it: active = GI50 up to about 1.1 µM and inactive = higher.

Experiments:
Test in all cases: DTP human tumour cell line panel, 48 h
[1] = system: SNB-78
[2] = system: KM-20L2
[3] = system: DLD-1
[4] = system: DMS-273
[5] = system: LXFL 529
[6] = system: DMS-114
[7] = system: HOP-18
[8] = system: XF498
[9] = system: RXF 631

Measured: GI50

COc1c(O)c2c(c3cc(C(=O)N4CCc5c4c(O)c(OC)c4[nH]c(C(=O)N6CC7CC78C6=CC(=O)c6[nH]cc(C)c68)cc54)[nH]c13)CCN2C(N)=O (centres undefined) [CC-1065]
active: [1] 0.00404 µM | [2] 0.00334 µM | [3] 0.00103 µM | [4] 0.00142 µM | [5] 0.00834 µM | [6] 0.0025 µM

O=C(NCCCCCCNC(=O)n1cc(F)c(=O)[nH]c1=O)NCCCOCCOCCOCCOCCOCCOCCOCCOCCOCCOCCOCCOCCOCCOCCOCCOCCOCCOCCOCCOCCOCCCNC(=O)C(O)C(O)C(OC1OC(CO)C(O)C(O)C1O)C(O)CO (centres undefined)
inactive: [1] > 100 µM | [2] 24.1 µM | [3] 22.6 µM | [7] > 37 µM | [4] 19.8 µM | [6] > 100 µM | [8] > 100 µM

Cc1nc(-n2nc(-c3ccccc3)cc2-c2ccccc2)sc1C(=O)CC(=O)C(=O)Nc1ccc(O)cc1
inactive: [1] > 100 µM | [2] > 100 µM | [3] > 100 µM | [7] > 100 µM | [4] > 100 µM | [5] > 100 µM | [9] > 100 µM | [6] > 100 µM

Nc1nc(OCc2ccccc2)c2nc[nH]c2n1 [6-O-BENZYLGUANINE]
inactive: [1] 79.8 µM | [2] 85.7 µM | [3] 64.6 µM | [7] 87.3 µM | [4] 93.1 µM | [5] 93.3 µM | [9] 69.7 µM | [6] 64 µM

C(=C1/CCCCC([n+]2ccccc2)=N1)/c1ccccc1
inactive: [1] > 100 µM | [2] > 100 µM | [3] > 100 µM | [7] > 100 µM | [4] > 100 µM | [5] > 100 µM | [6] > 100 µM

COc1ccc2[nH]c3c(c2c1)CCN(C)CC3
inactive: [1] > 100 µM | [2] > 100 µM | [3] > 100 µM | [7] > 100 µM | [4] > 100 µM | [9] > 100 µM | [8] > 100 µM

Cc1cccc(C)c1NC(=O)C(=O)C(C#N)c1ccccc1Cl (centres undefined)
inactive: [1] > 100 µM | [2] > 100 µM | [3] > 100 µM | [7] 91.4 µM | [4] > 100 µM | [5] > 100 µM | [6] > 100 µM | [8] > 100 µM

N[C@H](COCc1ccccc1)c1ccccc1
inactive: [1] 33.4 µM | [2] 24.5 µM | [3] 24.9 µM | [7] 25.9 µM | [4] 23.1 µM | [5] 20.5 µM | [6] 23.2 µM | [8] 21.1 µM

O=[N+]([O-])c1ccc(C[P+](c2ccccc2)(c2ccccc2)c2ccccc2)cc1
inactive: [2] 99.3 µM | [3] 50.4 µM | [7] 79.8 µM | [4] 37.8 µM | [5] 12.5 µM | [6] 23.2 µM
active: [8] < 0.01 µM

CC#CC#C/C=C1\C=CC2(OC=CC2O)O1 (centres undefined)
inactive: [1] 4.93 µM | [2] 3.94 µM | [3] 8.93 µM | [7] 4.79 µM | [4] > 23.3 µM | [5] 6.24 µM | [6] 7.38 µM | [8] 9.4 µM

O=C(O)c1cc(=O)c2[nH]c3ccccc3c2s1
inactive: [1] > 100 µM | [2] > 100 µM | [3] > 100 µM | [5] > 100 µM | [9] > 100 µM | [6] > 100 µM | [8] > 100 µM

CCc1cccc(C(C)C)c1NC(=O)C(=O)C(Cc1nc2ccccc2nc1O)C(=O)OC (centres undefined)
inactive: [2] > 100 µM | [3] > 100 µM | [7] > 100 µM | [4] 61.4 µM | [5] > 100 µM | [6] 14.3 µM | [8] > 100 µM

C1OC1C1CO1 (centres undefined)
inactive: [1] 87.3 µM | [2] 98.2 µM | [3] > 100 µM | [7] > 100 µM | [4] 10.4 µM | [6] 10.4 µM | [8] > 100 µM

O=C1c2ccccc2C(=O)c2c(O)c(NCCNCCO)cc(O)c21
inactive: [1] 5.21 µM | [2] 4.12 µM | [3] 3.13 µM | [7] 6.49 µM | [4] 3.81 µM | [5] 5.96 µM | [6] 4.19 µM | [8] 6.95 µM

O=C1OC(=O)C2C1C1(c3ccccc3)OC2(c2ccccc2)c2c(Br)c(Br)c(Br)c(Br)c21 (centres undefined)
inactive: [1] 83.8 µM | [2] > 100 µM | [3] > 100 µM | [7] > 100 µM | [4] > 100 µM | [5] > 100 µM | [6] > 100 µM | [8] > 100 µM

Cc1cc2c3ccccc3n3c2c2c1OC1(C)CCC(C2C1)C3(C)C (centres undefined)
inactive: [1] > 25 µM | [2] > 25 µM | [3] > 25 µM | [4] > 25 µM | [5] > 25 µM | [6] > 25 µM | [8] > 25 µM

O=C1OC(c2ccccc2)=N/C1=C/NC(CO)C(=O)O (centres undefined)
inactive: [1] > 100 µM | [2] > 100 µM | [3] > 100 µM | [7] 45.6 µM | [4] > 100 µM | [5] > 100 µM | [9] > 100 µM | [6] > 100 µM | [8] > 100 µM

CCOCc1cc(=O)c2c(OC)cc3c(c2o1)CCC(C)(C)O3
inactive: [1] > 100 µM | [2] > 100 µM | [3] > 100 µM | [7] > 100 µM | [5] > 100 µM | [8] > 100 µM

COc1cc2ccnc3c2c(c1OC)-c1coc(SC)c1-3
inactive: [1] > 100 µM | [2] > 100 µM | [3] 95.1 µM | [7] 38.6 µM | [4] 60.8 µM | [5] 78.7 µM | [9] > 100 µM

Clc1ccc2nc(-c3ccccc3)nc(Cl)c2c1
inactive: [1] 88.1 µM | [2] > 100 µM | [3] 60.1 µM | [4] 55.5 µM | [5] 52.7 µM | [9] 29.6 µM | [6] 39.3 µM

COc1ccc(C[C@H](N)C(=O)NC2C(CO)OC(n3cnc4c(N(C)C)ncnc43)C2O)cc1 (some centres undefined)
inactive: [7] 2.13 µM
active: [1] 0.213 µM | [2] 0.513 µM | [3] 1.11 µM | [4] 0.258 µM | [5] 0.121 µM | [9] 1 µM | [6] 0.17 µM | [8] 0.0458 µM

N#Cc1cc(NC(=O)c2ccccc2)c(=O)n2c1[nH]c1ccccc12
inactive: [1] 35 µM | [2] 32.7 µM | [3] 28.9 µM | [7] 7.45 µM | [4] 30.1 µM | [5] 33 µM | [9] 46.9 µM | [6] 23 µM | [8] 31.4 µM

CNCc1cc(OC)ccc1-c1ccc(OC)c(OC)c1OC
inactive: [1] > 100 µM | [2] > 100 µM | [3] > 100 µM | [7] > 32.5 µM | [4] > 100 µM | [5] > 100 µM | [9] > 100 µM | [6] 60.8 µM | [8] 85.3 µM

Nc1cc(=O)n(-c2ccccc2)c(=S)n1-c1ccccc1
inactive: [1] > 100 µM | [2] > 100 µM | [3] > 100 µM | [4] > 100 µM | [5] > 100 µM | [6] > 100 µM | [8] > 100 µM

COc1ccc2[nH]c3c(C)c4c(c(C)c3c2c1)CN(C)CC4
inactive: [1] 25.3 µM | [2] 17 µM | [3] 22.6 µM | [7] 10.6 µM | [4] 13 µM | [5] 17 µM | [9] 21.7 µM | [6] 18.6 µM

COCc1c(CO)cnc(C)c1OC1OC(CO)C(O)C(O)C1O (centres undefined)
inactive: [2] > 100 µM | [3] > 100 µM | [4] > 100 µM | [5] > 100 µM | [6] > 100 µM | [8] > 100 µM

CCOC(=O)C1CC/C(=C(/C#N)C(=O)OC)N1 (centres undefined)
inactive: [1] > 100 µM | [2] > 100 µM | [3] > 100 µM | [4] > 100 µM | [5] > 100 µM | [6] > 100 µM | [8] > 100 µM

SCc1ccc(-c2ccc(CS)cc2)cc1
inactive: [1] 18.3 µM | [2] 23.6 µM | [3] 17 µM | [7] 16.4 µM | [4] 24.2 µM | [5] 14.4 µM | [6] 12.5 µM | [8] 20.6 µM

Cc1ccc(-n2c3nc(=O)n(C)c(=O)c-3nc3ccccc32)cc1
inactive: [1] 30.5 µM | [2] 5.27 µM | [3] 27.6 µM | [7] 14.7 µM | [4] 4.3 µM | [5] 36 µM | [6] 13.7 µM | [8] 25.4 µM

O=c1[nH]c(Br)nc2c(Br)c[nH]c12
inactive: [1] > 100 µM | [2] > 100 µM | [3] > 100 µM | [7] > 100 µM | [4] > 100 µM | [5] > 100 µM | [9] > 100 µM | [6] > 100 µM | [8] > 100 µM

COc1ccc2c(=O)cc(-c3ccc(OC)c(OC)c3OC)oc2c1
inactive: [2] 26.5 µM | [3] 53.3 µM | [5] 40.4 µM | [9] 97.3 µM | [6] 76.2 µM | [8] 46.7 µM

Cc1ccc(S(=O)(=O)Nc2ccccc2C(C)(C)C)cc1
inactive: [1] 31.6 µM | [2] 19 µM | [3] 30.8 µM | [4] 17.3 µM | [5] 24.9 µM | [6] 17.9 µM | [8] 22 µM

Clc1ccc2c(Cl)ncnc2c1
inactive: [2] > 100 µM | [3] > 100 µM | [4] > 100 µM | [8] > 100 µM
